Experimental findings from paper PMC6149664, “Synthesis and In Vitro Antimycobacterial Activity of Novel N-Arylpiperazines Containing an Ethane-1,2-diyl Connecting Chain” (Molecules : A Journal of Synthetic Chemistry and Natural …, 2017) are described below.

SMILES strings stand for the structures. Like-named read-outs stand apart in the source and are kept apart here.

For data set [1], the system named is M. avium intracellulare ATCC 13950. The data set can be described thus: In vitro antimycobacterial MIC (IC90), alamarBlue 96-well assay in Middlebrook broth. Type of data set: cell-based, Mycobacterium avium intracellulare. The settings on record: Mycobacterium avium, ATCC13950, 168 h, 7 days incubation, read-out: MIC, MAI ATCC 13950. Background: Resazurin is reduced to fluorescent resorufin, in cell work by metabolically active cells.

In data set [2] the test system is M. avium CNCTC My 330/80 (identical with ATCC 25291). The data set can be described thus: In vitro antimycobacterial MIC, dilution-micromethod in Šula semisynthetic medium. As to conditions: Mycobacterium avium, read-out: MIC, MA My 330/88. Type of data set: cell-based.
Data set [3] concerns M. kansasii 6 509/96 clinical isolate. Described as above. As to conditions: Mycobacterium kansasii, read-out: MIC, MK 6 509/96. The format is cell-based.
For data set [4], the system named is M. avium hominissuis CIT10/08. The data set can be described thus: In vitro antimycobacterial MIC (IC90), alamarBlue 96-well assay in Middlebrook broth. Type of data set: cell-based, Mycobacterium avium hominissuis. As to conditions: Mycobacterium avium, 168 h, 7 days incubation, read-out: MIC, MAH CIT10/08.
Data set [5] deals with M. kansasii CNCTC My 235/80 (identical with ATCC 12478). The data set can be described thus: In vitro antimycobacterial MIC, dilution-micromethod in Šula semisynthetic medium. As to conditions: Mycobacterium kansasii, read-out: MIC, MK My 235/80. Type of data set: cell-based, Mycobacterium kansasii.
The next data set relates to M. kansasii CIT11/06. The data set can be described thus: In vitro antimycobacterial MIC (IC90), alamarBlue 96-well assay in Middlebrook broth. Type of data set: cell-based, Mycobacterium kansasii. The settings on record: Mycobacterium kansasii, CIT11/06, 168 h, 7 days incubation, read-out: MIC, MK CIT11/06.
Data set [6] concerns M. avium subsp. paratuberculosis CIT03. The data set can be described thus: microbe, parasite or virus in culture. Type of data set: cell-based. As to conditions: Mycobacterium avium, 168 h; 7 days incubation, alamarBlue; MIC = IC90; read-out: MIC, MAP CIT03.
Data set [7] is classed as physicochemical. Further details: key to RM (RP-TLC): RM = log(1/Rf - 1), from Rf in HCl/acetone mobile phase. The protocol:
In the RP-TLC, silica gel plates impregnated by a hand with a variously concentrated silicone oil in heptane (a strong hydrophobic agent) were used as a non-polar stationary phase. Optimal differences in RM values within both homological groups 8a–d and 8e–h were observed if 1% silicone oil in heptane was chosen (Tables 1 and S1 in Supplementary Materials).
The RM values were calculated according to Equation (5) from the Rf parameters observed in a SM mobile phase: hydrochloric acid (c = 1.0 M)/acetone (4:1, v/v):RM = log (1/Rf – 1)(5)
For the experiments, aluminium sheets pre-coated with silica gel 60 F254 (0.25 mm thickness; Merck) were impregnated by a variously concentrated silicone oil in heptane, which ranged from 1% to 5%. The plates were separately spotted with 2 µL of methanolic solutions of each compound (c = 1 mg/mL), starting points were 1 cm from a bottom edge of these plates. The chromatographic plates were developed in glass developing chambers saturated for 30 min by the SM mobile phase. Development was carried out upon 15 cm from a starting line by an ascending technique. After being developed, the plates were dried at room temperature. Detection of zones was performed under iodine vapours/UV light at λ = 254 nm. Each experiment was run in triplicate at 21 °C, the RM values of analytes were calculated separately for each run.
Optimal differences in RM values within both homological groups 8a–d and 8e–h were observed if 1% silicone oil in heptane was chosen. The Rfs were found in a range from 0.19 (8h) to 0.78 (8a; Table 1). All the calculated average RM values were summarized in Table S1 (Supplementary Materials).

Data set [8] can be described thus: UV/Vis spectra of methanolic solutions (log ε). Type of data set: physicochemical. As to conditions: methanolic solution c = 3.0 × 10^−5 M; for log ε2(Ch-T): charge-transfer maximum λ2(Ch-T) = 238–240 nm; for log ε1: λ1 = 208–210 nm; for log ε3: λ3 = 274–276 nm. From the text:
Electronic properties of the inspected compounds 8a–h (Table 3) were characterized by logarithms of molar absorption coefficients (log ε) of their methanolic solutions (c = 3.0 × 10^−5 M) investigated in the UV/Vis region of the spectrum.
The UV/Vis spectra of methanolic solutions of the analyzed compounds 8a–h (c = 3.0 × 10^−5 M) were estimated on the 8452A Diode Array spectrophotometer HP-8452A (Hewlett Packard, Palo Alto, CA, USA). Methanol for UV-spectroscopy (Merck) was used for the preparation of these solutions.
Results of the UV/Vis analyses were collected and stored digitally using the ChemStation controller software (Agilent Technologies, Waldbronn, Germany). The HP-8452A apparatus measured a complete range of a spectrum from 190 nm to 820 nm.
The log ε values characterizing methanolic solutions of the analyzed compounds 8a–h (c = 3.0 × 10^−5 M) were estimated at λ1 = 208–210 nm, λ2(Ch-T) = 238–240 nm and λ3 = 274–276 nm (Table 3), respectively, in a near ultraviolet (quarz) region of the electromagnetic spectrum between 200 and 400 nm. The log ε values for the observed absorption maxima were calculated according to the Lambert-Beer´s law discussed in [47], for example, and expressed by Equation (8):A = ε × c × l(8) where the A parameter represented the absorbance of a solution, the descriptor ε was a molar absorption coefficient (in the L/mol/cm units) and l was the path length (in the cm units).

Data set [9] has as its system M. tuberculosis CNCTC My 331/88 (identical with H37Rv and ATCC 2794). The data set can be described thus: In vitro antimycobacterial MIC, dilution-micromethod in Šula semisynthetic medium. The format is cell-based. As to conditions: Mycobacterium tuberculosis.
The mark [10] stands for this setting: ATCC25291, 336 h, 14 d cultivation.
Where [11] appears, read: ATCC25291, 504 h, 21 d cultivation.
Setting [12] is: ATCC12478, 168 h, 7 d cultivation.
The mark [13] stands for this setting: ATCC12478, 336 h, 14 d cultivation.
The mark [14] stands for this setting: ATCC12478, 504 h, 21 d cultivation.
Where [15] appears, read: silica gel plates impregnated with 3% silicone oil in heptane.
Where [16] appears, read: silica gel plates impregnated with 5% silicone oil in heptane.
The mark [17] stands for this setting: 336 h, 14 d cultivation, read-out: MIC, MT My 331/88.
Where [18] appears, read: 504 h, 21 d cultivation, read-out: MIC, MT My 331/88.

For `CCOC(=O)Nc1ccc(C(O)CN2CCN(c3ccccc3F)CC2)cc1.Cl` (stereo not shown) [8f, 1-(2-{4-[(Ethoxycarbonyl)amino]phenyl}-2-hydroxyethyl)-4-(2-fluorophenyl)piperazin-1-ium chloride], the MIC was over 590 µM in data set [1]; over 250 µM in data set [2] (setting [10]); over 250 µM in data set [2] (setting [11]); 62.5 µM in [3] (168 h); over 125 µM in data set [3] (336 h, 14 d cultivation); over 125 µM in [3] (504 h, 21 d cultivation). Moreover, the MIC in [4] was over 590 µM; in [5] (setting [12]), 125 µM; in data set [5] (setting [13]), over 250 µM; in data set [5] (setting [14]), over 250 µM; in the data set with M. kansasii CIT11/06 it was 295 µM; in data set [6] it was over 590 µM. Moreover, the MIC in data set [9] (setting [17]) is 32 µM; in data set [9] (setting [18]), 62.5 µM. For the same compound, in data set [7], the “RM, lipophilicity index (RP-TLC)” value is listed as 0.19. The “RM (RP-TLC)” value in data set [7] (setting [15]) is on record as 0.31; in data set [7] (setting [16]), 0.41. Further, the “log ε2(Ch-T)” value in data set [8] came out at 4.60. In addition, in data set [8], the “log ε1” value is recorded as 4.59. The “log ε3” value in data set [8] is recorded as 3.60.
Regarding `CCCOC(=O)Nc1ccc(C(O)CN2CCN(c3ccccc3F)CC2)cc1.Cl` (stereo not shown) [8g, 1-(2-Hydroxy-2-{4-[(propoxycarbonyl)amino]phenyl}ethyl)-4-(2-fluorophenyl)piperazin-1-ium chloride], the MIC was over 71 µM in data set [1]; over 250 µM in [2] (setting [10]); over 250 µM in data set [2] (setting [11]); 125 µM in data set [3] (168 h, 7 d cultivation); over 250 µM in [3] (336 h, 14 d cultivation); over 250 µM in data set [3] (504 h, 21 d cultivation). Besides, the MIC in [4] is over 571 µM; in [5] (setting [12]), 125 µM; in data set [5] (setting [13]) it was over 250 µM; in data set [5] (setting [14]), over 250 µM; with M. kansasii CIT11/06, over 571 µM; in [6] it was over 571 µM. Further, the MIC in data set [9] (setting [17]) and in data set [9] (setting [18]) was 16 µM in each case. Also, the “RM, lipophilicity index (RP-TLC)” value in data set [7] amounted to 0.39. Further, the “RM (RP-TLC)” value in data set [7] (setting [15]) is recorded as 0.58; in data set [7] (setting [16]), 0.55. In data set [8], the “log ε2(Ch-T)” value was determined as 4.54. Besides, the “log ε1” value in data set [8] came to 4.47. Moreover, in data set [8], the “log ε3” value was 3.52.
In the case of `CCCCOC(=O)Nc1ccc(C(O)CN2CCN(c3ccccc3F)CC2)cc1.Cl` (stereo not shown) [8h, 1-(2-{4-[(Butoxycarbonyl)amino]phenyl}-2-hydroxyethyl)-4-(2-fluorophenyl)piperazin-1-ium chloride], the MIC in data set [1] is over 553 µM; in data set [2] (setting [10]), over 250 µM; in [2] (setting [11]), 250 µM; in data set [3] (168 h, 7 d cultivation) it was 125 µM; in data set [3] (336 h, 14 d cultivation) it was over 250 µM; in [3] (504 h, 21 d cultivation) it was over 250 µM. Also, the MIC is over 553 µM in data set [4]; 62.5 µM in data set [5] (setting [12]); over 125 µM in data set [5] (setting [13]); over 125 µM in [5] (setting [14]); over 553 µM with M. kansasii CIT11/06; over 553 µM in data set [6]. The MIC came out at 8 µM in [9] (336 h, 14-d/21-d cultivation, read-out: MIC against M. tuberculosis CNCTC My 331/88); 8 µM in data set [9] (setting [17]); 8 µM in data set [9] (setting [18]). The “RM, lipophilicity index (RP-TLC)” value in data set [7] is listed as 0.63. Further, the “RM (RP-TLC)” value in data set [7] (setting [15]) and in [7] (setting [16]) was 0.83 in each case. In data set [8], the “log ε2(Ch-T)” value is given as 4.42. In addition, the “log ε1” value in [8] is 4.34. In addition, the “log ε3” value in [8] is 3.42.
